This is an account of results in article PMC7691401, “^68Ga, ^44Sc and ^177Lu-labeled AAZTA^5-PSMA-617: synthesis, radiolabeling, stability and cell binding compared to DOTA-PSMA-617 analogues” (EJNMMI Radiopharmacy and Chemistry, 2020).

On the set-up of series [1]: method as in Sinnes et al. [2019]. The note with it: ref Sinnes et al. [2019], in % (unit assumed), cited from earlier work.
Details of series [2]: method as in Sinnes et al. [2019]. The following applies: PBS, ref Sinnes et al. [2019], in % (unit assumed), cited from earlier work.
On the set-up of series [3]: method as in Sinnes et al. [2019]. The following applies: HS, ref Sinnes et al. [2019], in % (unit assumed), cited from earlier work.
For another series, the target named is T1, PSMA (Homo sapiens, UniProt Q04609).
T1 construct: 10^5 LNCaP cells per well were incubated with 0.75 nM [^68Ga]Ga-PSMA-10; host or cells: LNCaP
The following applies: LNCaP cells, read-out: Ki ± SD, cited from earlier work.

Series [4] deals with PSMA-positive LNCaP cells. The note with it: cited from earlier work.
In series [5] the test system is PSMA-positive LNCaP cells. Nature of the series: Internalization studies in LNCaP cells. It is filed as cell-based, human. The note with it: for specific internalization or cell surface binding: PSMA-positive LNCaP cells. Here is the method: (§1) The in vitro experiments were performed using the PSMA-positive LNCaP cell line (androgen-sensitive human lymph node metastatic lesion of prostatic adenocarcinoma, CRL-1740 [American Type Culture Collection]) (Benešová et al. [2015]). For negative control, PSMA-PC3 cells (bone metastasis of a grade IV prostatic adenocarcinoma, ATCC CRL-1435) were used (Eder et al. [2012a]). The cells were cultured in RPMI1640 medium supplemented with 10% fetal calf serum and L-glutamine and incubated at 37 °C in an environment of humidified air containing 5% CO2. The cells were harvested using trypsin-ethylenediaminetetraacetic acid (trypsin-EDTA; 0.05% trypsin, 0.02% EDTA, all from PAN Biotech).
For internalization studies 10^5 LNCaP or PC3 cells were seeded in poly(L-lysine)-coated 24-well cell culture plates at 37 °C in an environment of humidified air containing 5% CO2 for 24 h. (Mier et al. [2007]). The medium is removed and 250 μl of radiolabeled 30 nM AAZTA^5-PSMA is replaced for 45 min. One plate is being incubated at 37 °C and the second one at 4 °C to inhibit the internalization. The specificity of the ligands is proofed by addition 500 μM of 2-(phosphonomethyl)-pentanedioic acid (2-PMPA, Axxora, Loerrach, Germany). After incubation, the cells were washed three times with 1 ml ice cold PBS. To determine the surface-bound activity cells were incubated twice with 0.5 ml of glycine-HCl in PBS (50 mM, pH 2.8) each for 5 min at room temperature. Both washing steps were collected for measuring with a gamma counter (Packard Cobra II, GMI, Minnesota, USA). Before lysating the cells with 0.5 mL of 0.3 M NaOH to determine the internalized fraction, they were once washed with 1 ml ice cold PBS (Eder et al. [2012a]).

The next series relates to PC3 cells. Nature of the series: Internalization studies in PC3 cells (negative control). It is filed as cell-based, human. The note with it: PSMA-negative PC3 cells. As for the experimental part: as §1
For internalization studies 10^5 LNCaP or PC3 cells were seeded in poly(L-lysine)-coated 24-well cell culture plates at 37 °C in an environment of humidified air containing 5% CO2 for 24 h. (Mier et al. [2007]). The medium is removed and 250 μl of radiolabeled 30 nM AAZTA^5-PSMA is replaced for 45 min. One plate is being incubated at 37 °C and the second one at 4 °C to inhibit the internalization. The specificity of the ligands is proofed by addition 500 μM of 2-(phosphonomethyl)-pentanedioic acid (2-PMPA, Axxora, Loerrach, Germany). After incubation, the cells were washed three times with 1 ml ice cold PBS. […]

[6] abbreviates: LNCaP cells, ref Benešová et al. [2015].

Where two headings read alike, the source gives them in different places.

T1 sequence (Q04609 whole entry): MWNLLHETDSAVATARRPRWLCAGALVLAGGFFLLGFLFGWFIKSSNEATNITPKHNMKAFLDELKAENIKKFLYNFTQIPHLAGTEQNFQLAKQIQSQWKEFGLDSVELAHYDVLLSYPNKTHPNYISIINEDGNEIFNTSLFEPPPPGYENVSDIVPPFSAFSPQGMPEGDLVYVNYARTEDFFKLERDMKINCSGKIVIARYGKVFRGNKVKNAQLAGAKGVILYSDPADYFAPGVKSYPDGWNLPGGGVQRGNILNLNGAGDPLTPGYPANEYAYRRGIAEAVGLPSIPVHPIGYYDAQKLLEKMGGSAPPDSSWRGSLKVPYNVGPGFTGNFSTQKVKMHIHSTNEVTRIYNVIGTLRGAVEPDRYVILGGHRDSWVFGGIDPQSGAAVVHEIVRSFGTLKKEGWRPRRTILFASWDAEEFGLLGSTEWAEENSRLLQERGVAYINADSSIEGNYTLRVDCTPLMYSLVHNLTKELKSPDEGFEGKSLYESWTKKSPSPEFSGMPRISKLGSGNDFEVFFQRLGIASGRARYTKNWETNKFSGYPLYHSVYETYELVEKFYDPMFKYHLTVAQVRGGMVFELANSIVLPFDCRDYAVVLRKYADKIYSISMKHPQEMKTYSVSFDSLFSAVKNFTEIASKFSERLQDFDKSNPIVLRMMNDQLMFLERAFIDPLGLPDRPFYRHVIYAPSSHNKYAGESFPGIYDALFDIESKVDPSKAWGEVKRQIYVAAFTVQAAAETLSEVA

In the case of `O=C(O)CCCCC1(N(CC(=O)O)CC(=O)O)CN(CC(=O)O)CCN(CC(=O)O)C1.[68Ga+3]` [[^68Ga]Ga-AAZTA^5], the Stability values in series [1] (DTPA, 0.5 h) is 84.3 ± 0.9; in series [1] (DTPA, 1 h), 78.0 ± 1.4; in series [1] (DTPA, 2 h), 45.7 ± 1.3; in series [1] (EDTA, 0.5 h), 93.0 ± 0.2; in series [1] (EDTA, 1 h) it was 50.3 ± 7.4; in series [1] (EDTA, 2 h), 49.5 ± 2.5. Besides, the Stability values is 97.5 ± 1.0 in series [2] (0.5 h); 88.7 ± 0.5 in series [2] (1 h); 78.5 ± 4.5 in series [2] (2 h); 93.0 ± 0.8 in series [3] (0.5 h); 92.7 ± 1.3 in series [3] (1 h); 85.3 ± 3.4 in series [3] (2 h).
Turning to `O=C(O)CCC(NC(=O)NC(CCCCNC(=O)C(Cc1ccc2ccccc2c1)NC(=O)C1CCC(CNC(=O)CN2CCN(CC(=O)O)CCN(CC(=O)O)CCN(CC(=O)O)CC2)CC1)C(=O)O)C(=O)O.[Sc+3]` (stereo not drawn) [[^nat/44Sc]Sc-PSMA-617], the inhibitory constant (Ki) on PSMA (ref Eppard et al. [2017]) was 4.7 ± 0.8 nM. Besides, the “Internalization ± SD” value in series [4] (LNCaP cells, ref Eppard et al. [2017]) is listed as 15.8 ± 2.1 %IA/10^6 cells.
For `O=C([O-])CN(CCN(CC(=O)[O-])Cc1cc(CCC(=O)NCCCCCC(=O)NCCCC[C@H](NC(=O)N[C@@H](CCC(=O)O)C(=O)O)C(=O)O)ccc1[O-])Cc1cc(CCC(=O)O)ccc1[O-].[68Ga+3].[OH3+]` [[^nat/68Ga]Ga-PSMA-11], the inhibitory constant (Ki) at PSMA (ref Eder et al. [2012a]) was 12 ± 2.8 nM. The “Internalization ± SD” value in series [4] (setting [6]) is 9.5 ± 2.6 %IA/10^6 cells.
As for `O=C(O)CCC(NC(=O)NC(CCCCNC(=O)C(Cc1ccc2ccccc2c1)NC(=O)C1CCC(CNC(=O)CN2CCN(CC(=O)O)CCN(CC(=O)O)CCN(CC(=O)O)CC2)CC1)C(=O)O)C(=O)O.[Ga+3]` (stereo not drawn) [[^nat/68Ga]Ga-PSMA-617], the Ki at PSMA (ref Benešová et al. [2015]) is 6.4 ± 1 nM. Moreover, in series [4] (setting [6]), the “%internalization / total cellular activity ratio” value is given as “around 45%” and the “Internalization ± SD” value is 17.7 ± 4.4 %IA/10^6 cells. In addition, the “%internalization / total cellular activity ratio” value in series [4] (LNCaP cells, ref Benešová et al. [2015], listed as [^68Ga]Ga-DOTA-PSMA-617) was 47%.
Take `O=C(O)CCC(NC(=O)NC(CCCCNC(=O)C(Cc1ccc2ccccc2c1)NC(=O)C1CCC(CNC(=O)CN2CCN(CC(=O)O)CCN(CC(=O)O)CCN(CC(=O)O)CC2)CC1)C(=O)O)C(=O)O.[Lu+3]` (stereo not drawn) [[^nat/177Lu]Lu-PSMA-617]: the Ki at PSMA (ref Benešová et al. [2015]) was 6.9 ± 1.3 nM. Moreover, the “%internalization / total cellular activity ratio” value in series [5] (LNCaP cells, 37 °C, surface versus internalized activity, this assay) is 27%; in series [4] (ref Umbricht et al. [2017]), 10–15%. For the same compound, the “Internalization ± SD” value in series [4] (setting [6]) is reported as 17.5 ± 3.1 %IA/10^6 cells.
Take `O=C(O)CCCCC1(N(CC(=O)O)CC(=O)O)CN(CC(=O)O)CCN(CC(=O)O)C1.[44Sc+3]` [^44Sc AAZTA^5]: the Stability values in series [1] (DTPA, 1 h) is given as 94.3 ± 0.9; in series [1] (DTPA, 4 h), 92.5 ± 0.5; in series [1] (DTPA, 8 h) it was 93.8 ± 1.2; in series [1] (DTPA, 24 h) it was 93.4 ± 1.1; in series [1] (EDTA, 1 h), 93.7 ± 1.3; in series [1] (EDTA, 4 h) it was 90.0 ± 3.2. Also, the Stability values was 92.3 ± 2.1 in series [1] (EDTA, 8 h); 91.9 ± 1.8 in series [1] (EDTA, 24 h); 95.3 ± 0.9 in series [2] (1 h); 92.7 ± 1.3 in series [2] (4 h); 95.9 ± 1.2 in series [2] (8 h); 96.0 ± 0.8 in series [2] (24 h). For the same compound, the Stability values in series [3] (1 h) is given as 93.7 ± 0.9; in series [3] (4 h), 94.3 ± 1.7; in series [3] (8 h), 93.2 ± 1.1; in series [3] (24 h), 91.3 ± 1.8. Also, the “specific internalization or cell surface binding” value (in the series on PC3 cells; in series [5]) was “no surface activity or internalization” each time.
`O=C(O)CCCCC1(N(CC(=O)O)CC(=O)O)CN(CC(=O)O)CCN(CC(=O)O)C1.[177Lu+3]` [^177Lu AAZTA^5]: the Stability values in series [1] (DTPA, 1 h) is recorded as 99.1 ± 0.2; in series [1] (DTPA, 2 h) it was 99.1 ± 0.1; in series [1] (DTPA, 24 h), 80.4 ± 5.4; in series [1] (DTPA, 7 d), 59.0 ± 14.3; in series [1] (EDTA, 1 h), 98.9 ± 0.2; in series [1] (EDTA, 2 h), 97.9 ± 0.3. Further, the Stability values in series [1] (EDTA, 24 h) is 79.2 ± 2.9; in series [1] (EDTA, 7 d), 48.9 ± 1.5; in series [2] (1 h) it was 97.8 ± 0.5; in series [2] (2 h), 98.6 ± 0.4; in series [2] (24 h), 99.1 ± 0.6; in series [2] (7 d), 96.0 ± 0.8. Moreover, the Stability values in series [3] (1 h) is given as 99.8 ± 0.1; in series [3] (2 h), 99.7 ± 0.1; in series [3] (24 h) it was 99.9 ± 0.1; in series [3] (7 d) it was 82.5 ± 3.2. Moreover, the “specific internalization or cell surface binding” value (in the series on PC3 cells; in series [5]) was “no surface activity or internalization” in each case.
